In brackets after ≈: the same amount, converted by molar mass.
Experiments:
DNA polymerase α = molecular target: T1, DNA polymerase α (Mus musculus, UniProt P33609); experiment: DNA polymerase alpha activity, L1210 cytoplasmic extracts; type: biochemical; conditions: for DNA polymerase α: 60 min, N=6; for DNA polymerase activity time course, in words: 50 μM over 2 hr
T1 construct: endogenous in cells; host or cells: L1210 murine lymphoid leukemia cells, cytoplasmic extract
Excerpt: (§1) CYTOTOXlCITY OF POLY(PHENOLIC)SULFONATES AND THEIR SODIUM SALTS IN L1210 LYMPHOID LEUKEMIA CELLS Fei Wang, Amy E. Warren, Cheryl R. Barnes and Iris H. Hall* Division of Medicinal Chemistry and Natural Products University of North Carolina Chapel Hill, N.C. […] Because ofthese properties it was surmised that these poly(phenolic)sulfonated compounds may have antineoplastic activity. METHODS Source of Compounds Test compounds were supplied by GeneLabs, Inc. [Redwood City, CA [Table 1]. Radioisotopes were obtained from New England Nuclear [Dupont, Boston, MA]. Substrates and co-factors were purchased om Sigma Chemical Co., [St Louis, MO]. Pentosan sulfate and other antineoplastic standards were obtained from Sigma Chemical Co. Tumor lines were obtained from American Type Culture Collection [Rockville, MD]. 147 Vol. 5, No. 3, 1998 Cytotoxicity ofSodium Poly(Phenolic)Sulfonates in L1210 Lymphoid Leukemia Cells Table 1 Structures of Poly(phenolic)sulfonate Compounds O2R" n Compound R' R" n MW # G1-2041 H OH 8 1489.46 G1-2029 H OH 6 1117.09 G1-2030 H OH 4 744.73 GI-2021 CH3 ONa 8 1777.5 G1-2057 CH3 ONa 4 888.75 GI-2158 CH3 ONa 6 1333.13 GI-2063 OCH3 ONa 8 2001.65 G1-2042 OAc ONa 8 2017.73 Cytotoxicity Poly(phenolic)sulfonates were tested for cytotoxic activity by homogenizing drug in 0.05% Tween 80/H20 to give a mg/ml stock concentration. These solutions were sterilized by passing them through an acrodisc ([…]). The following cell lines were maintained by literature techniques: murine L1210 lymphoid leukemia, P-388 lymphocytic leukemia, rat UMR 106 osteosarcoma, human Tmolt3 acute lymphoblastic T cell leukemia, HUT-8 lymphoma, HeLa-S suspended cervical carcinoma, HeLa solid cervical carcinoma, KB epidermoid nasopharynx, A431 epidermoid carcinoma, colorectal adenocarcinoma SW480, HCT-8 ileocecal adenocarcinoma, lung bronchogenic MB-9812, A549 lung carcinoma, and glioma HS683. Geran et al.'s protocol was used to assess the cytotoxicity of the compounds and standards in each cell line. Cell numbers were determined by the trypan blue exclusion technique. Solid tumor cytotoxicity was determined by Leibovitz et al. 's method utilizing crystal violeeOH and read at 562 nm (Molecular Devices). Values for cytotoxicity were expressed as EDs0 g/ml, i.e. the concentration ofthe compound inhibiting 50% ofcell growth. A value of less than 4 µg/ml was required for significant activity ofgrowth inhibition. Incorporation Studies Incorporation of labeled precursors into 3H-DNA, 3H -RNA and 3H -protein for 10 L1210 cells was obtained. The concentration response for inhibition of DNA, RNA and protein synthesis of the compounds at 25, 50 and 100 l.tM was determined for 60 min incubations. Incorporation of 14C -glycine (53.0 mCi/mmol) into purines was obtained by the method of Cadman et al.[12]. Incorporation of 4C- formate (53.0 mCi/mmol) into pyrimidines was determined by the method of Christopherson et al.[13]. Enzyme Assays Inhibition of various enzyme activities was performed by first preparing the appropriate L1210 cell homogenates or subcellular fractions, then adding the drug to be tested during the enzyme assay. For the concentration response studies, inhibition of enzyme activity was determined at 25, 50 and 100 l.tM of compounds G1-2021, G1-2029, GI-2041 and G1-2063 after 60 min incubations. DNA polymerase Ot activity was determined in cytoplasmic extracts isolated by Eichler et aL's method. The DNA polymerase assay was described by Sedwick et al.[15] using 3H-TTP. Messenger-, ribosomal- and transfer-RNA polymerase enzymes were isolated with different concentrations of ammonium sulfate; individual RNA polymerase activities were determined using 3H -UTP 16,17]. Ribonucleoside reductase activity was measured using 4C -CDP with dithioerythritol. The deoxyribonucleotides 4C -dCDP were separated from the ribonucleotides by TLC on PEI plates. […]

rRNA polymerase = molecular target: T2, rRNA polymerase (Mus musculus, UniProt O35134); experiment: Ribosomal-RNA polymerase activity, L1210; type: biochemical; conditions: 60 min, N=6
T2 construct: Messenger-, ribosomal- and transfer-RNA polymerase enzymes were isolated with different concentrations of ammonium sulfate; endogenous in cells; host or cells: L1210 murine lymphoid leukemia cells, ammonium sulfate fraction
Excerpt: as §1

[1] = molecular target: T3, Aspartate transcarbamylase (Mus musculus, UniProt B2RQC6); experiment: Aspartate transcarbamylase activity, L1210; type: biochemical; conditions: 60 min, N=6
T3 construct: preparing the appropriate L1210 cell homogenates or subcellular fractions; endogenous in cells; host or cells: L1210 murine lymphoid leukemia cells, homogenate or subcellular fraction
Excerpt: as §1

[2] = molecular target: T4, Carbamyl phosphate synthetase (Mus musculus, UniProt B2RQC6); experiment: Carbamyl phosphate synthetase activity, L1210; type: biochemical; conditions: 60 min, N=6
T4 construct: preparing the appropriate L1210 cell homogenates or subcellular fractions; endogenous in cells; host or cells: L1210 murine lymphoid leukemia cells, homogenate or subcellular fraction
Excerpt: as §1

L1210 DNA = L1210 DNA strand scission, alkaline-sucrose gradient; type: cell-based, mouse; conditions: 100 μM, 24 hr
Excerpt: (§2) CYTOTOXlCITY OF POLY(PHENOLIC)SULFONATES AND THEIR SODIUM SALTS IN L1210 LYMPHOID LEUKEMIA CELLS Fei Wang, Amy E. Warren, Cheryl R. Barnes and Iris H. Hall* Division of Medicinal Chemistry and Natural Products University of North Carolina Chapel Hill, N.C. […] Because ofthese properties it was surmised that these poly(phenolic)sulfonated compounds may have antineoplastic activity. METHODS Source of Compounds Test compounds were supplied by GeneLabs, Inc. [Redwood City, CA [Table 1]. Radioisotopes were obtained from New England Nuclear [Dupont, Boston, MA]. Substrates and co-factors were purchased om Sigma Chemical Co., [St Louis, MO]. […] Cell numbers were determined by the trypan blue exclusion technique. Solid tumor cytotoxicity was determined by Leibovitz et al. 's method utilizing crystal violeeOH and read at 562 nm (Molecular Devices). Values for cytotoxicity were expressed as EDs0 g/ml, i.e. the concentration ofthe compound inhibiting 50% ofcell growth. […] Incorporation of 4C- formate (53.0 mCi/mmol) into pyrimidines was determined by the method of Christopherson et al.[13]. […] DNA polymerase Ot activity was determined in cytoplasmic extracts isolated by Eichler et aL's method. […] Messenger-, ribosomal- and transfer-RNA polymerase enzymes were isolated with different concentrations of ammonium sulfate; individual RNA polymerase activities were determined using 3H -UTP 16,17]. […]

[3] = system: HeLa solid cervical carcinoma; experiment: Cytotoxicity, solid HeLa growth; type: cell-based, human
Excerpt: as §2

[4] = system: L1210 de novo pyrimidine synthesis; experiment: 14C-formate incorporation into pyrimidines; type: cell-based, mouse; conditions: 60 min, N=6
Excerpt: as §1

L1210 protein synthesis = experiment: Incorporation of labeled precursor into protein; type: cell-based, mouse; conditions: 60 min, N=6
Excerpt: as §1

[5] = system: Thymidine diphosphate kinase; experiment: TDP kinase activity, L1210; type: biochemical, mouse; conditions: 60 min, N=6
Excerpt: as §1

[6] = system: colorectal adenocarcinoma SW480; experiment: Cytotoxicity, SW480 growth; type: cell-based, human
Excerpt: as §1, with “Geran et al.'s protocol was used to assess the cytotoxicity of the compounds and standards in each cell line.” left out, “A value of less than 4 µg/ml was required for significant activity ofgrowth inhibition. Incorporation Studies Incorporation of labeled precursors into 3H-DNA, 3H -RNA and 3H -protein for 10 L1210 cells was obtained. The concentration response for inhibition of DNA, RNA and protein synthesis of the compounds at 25, 50 and 100 l.tM was determined for 60 min incubations. Incorporation of 14C -glycine (53.0 mCi/mmol) into purines was obtained by the method of Cadman et al.[12].” left out, “Enzyme Assays Inhibition of various enzyme activities was performed by first preparing the appropriate L1210 cell homogenates or subcellular fractions, then adding the drug to be tested during the enzyme assay. For the concentration response studies, inhibition of enzyme activity was determined at 25, 50 and 100 l.tM of compounds G1-2021, G1-2029, GI-2041 and G1-2063 after 60 min incubations.” left out, “The DNA polymerase assay was described by Sedwick et al.[15] using 3H-TTP.” left out, “dithioerythritol.” for “dithioerythritol. The deoxyribonucleotides 4C -dCDP were separated from the ribonucleotides by TLC on PEI plates.”

L1210 DNA synthesis = experiment: Incorporation of labeled precursor into DNA; type: cell-based, mouse; conditions: 60 min, N=6
Excerpt: as §1

[7] = system: HeLa-S suspended cervical carcinoma; experiment: Cytotoxicity, HeLa-S3 growth; type: cell-based, human
Excerpt: as §2

[8] = system: KB epidermoid nasopharynx; experiment: Cytotoxicity, KB growth; type: cell-based, human
Excerpt: as §2, with “MO]. Pentosan sulfate and other antineoplastic standards were obtained from Sigma Chemical Co. Tumor lines were obtained from American Type Culture Collection [Rockville, MD].” for “MO].”, “16,17]. Ribonucleoside reductase activity was measured using 4C -CDP with dithioerythritol.” for “16,17].”

[9] = concentration inhibiting 50% of cell growth

T1 sequence (P33609 whole entry): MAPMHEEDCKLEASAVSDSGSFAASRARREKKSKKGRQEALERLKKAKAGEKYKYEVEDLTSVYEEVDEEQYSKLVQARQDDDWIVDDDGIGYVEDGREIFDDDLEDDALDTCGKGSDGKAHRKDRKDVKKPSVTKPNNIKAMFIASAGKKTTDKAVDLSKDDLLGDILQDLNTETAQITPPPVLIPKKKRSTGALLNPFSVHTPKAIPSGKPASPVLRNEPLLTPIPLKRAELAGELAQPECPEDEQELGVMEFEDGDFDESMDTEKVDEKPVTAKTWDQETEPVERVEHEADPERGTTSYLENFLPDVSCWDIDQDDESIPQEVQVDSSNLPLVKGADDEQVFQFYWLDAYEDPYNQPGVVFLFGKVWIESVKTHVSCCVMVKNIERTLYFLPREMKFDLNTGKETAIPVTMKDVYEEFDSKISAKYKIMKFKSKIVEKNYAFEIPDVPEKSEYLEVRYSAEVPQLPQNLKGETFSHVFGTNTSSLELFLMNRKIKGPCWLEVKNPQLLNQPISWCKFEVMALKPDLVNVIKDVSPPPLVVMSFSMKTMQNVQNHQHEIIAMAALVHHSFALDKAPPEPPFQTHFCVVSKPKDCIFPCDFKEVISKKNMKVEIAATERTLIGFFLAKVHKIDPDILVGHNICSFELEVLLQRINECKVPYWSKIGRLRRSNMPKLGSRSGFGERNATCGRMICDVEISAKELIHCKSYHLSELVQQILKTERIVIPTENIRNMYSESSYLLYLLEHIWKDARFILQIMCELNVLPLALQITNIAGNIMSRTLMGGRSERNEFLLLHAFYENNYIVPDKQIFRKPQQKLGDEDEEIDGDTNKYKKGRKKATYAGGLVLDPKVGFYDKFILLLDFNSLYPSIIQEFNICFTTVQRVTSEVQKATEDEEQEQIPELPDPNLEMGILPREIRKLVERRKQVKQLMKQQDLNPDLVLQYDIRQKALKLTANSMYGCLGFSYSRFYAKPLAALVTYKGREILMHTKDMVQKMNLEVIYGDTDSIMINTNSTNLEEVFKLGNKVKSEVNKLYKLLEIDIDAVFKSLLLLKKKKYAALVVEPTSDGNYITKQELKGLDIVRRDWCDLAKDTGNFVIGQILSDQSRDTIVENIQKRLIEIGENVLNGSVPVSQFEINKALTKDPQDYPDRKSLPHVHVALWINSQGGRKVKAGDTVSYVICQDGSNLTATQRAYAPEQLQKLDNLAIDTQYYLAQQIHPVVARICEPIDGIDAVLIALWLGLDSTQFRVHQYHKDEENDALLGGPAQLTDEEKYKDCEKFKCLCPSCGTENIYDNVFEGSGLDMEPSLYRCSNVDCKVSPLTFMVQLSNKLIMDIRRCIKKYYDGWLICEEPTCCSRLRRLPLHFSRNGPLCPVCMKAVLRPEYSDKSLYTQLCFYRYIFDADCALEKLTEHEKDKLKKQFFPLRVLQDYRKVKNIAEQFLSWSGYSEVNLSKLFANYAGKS
T1 sequence (P33611 whole entry partner): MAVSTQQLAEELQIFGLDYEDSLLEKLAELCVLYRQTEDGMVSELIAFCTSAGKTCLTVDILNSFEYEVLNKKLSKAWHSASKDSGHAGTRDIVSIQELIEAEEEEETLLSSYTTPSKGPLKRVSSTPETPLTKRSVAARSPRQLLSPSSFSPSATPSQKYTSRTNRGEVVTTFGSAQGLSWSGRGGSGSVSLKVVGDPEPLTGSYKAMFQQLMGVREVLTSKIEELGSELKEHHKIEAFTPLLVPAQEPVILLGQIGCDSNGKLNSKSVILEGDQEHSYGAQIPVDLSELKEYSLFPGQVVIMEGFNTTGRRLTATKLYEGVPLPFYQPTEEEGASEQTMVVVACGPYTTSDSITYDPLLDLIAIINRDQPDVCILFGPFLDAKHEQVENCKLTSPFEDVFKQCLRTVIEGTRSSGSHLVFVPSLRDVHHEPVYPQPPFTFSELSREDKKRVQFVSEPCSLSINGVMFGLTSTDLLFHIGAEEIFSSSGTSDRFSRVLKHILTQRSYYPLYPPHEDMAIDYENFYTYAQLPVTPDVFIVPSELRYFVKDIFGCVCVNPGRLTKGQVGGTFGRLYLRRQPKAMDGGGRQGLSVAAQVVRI
T1 sequence (P20664 whole entry partner): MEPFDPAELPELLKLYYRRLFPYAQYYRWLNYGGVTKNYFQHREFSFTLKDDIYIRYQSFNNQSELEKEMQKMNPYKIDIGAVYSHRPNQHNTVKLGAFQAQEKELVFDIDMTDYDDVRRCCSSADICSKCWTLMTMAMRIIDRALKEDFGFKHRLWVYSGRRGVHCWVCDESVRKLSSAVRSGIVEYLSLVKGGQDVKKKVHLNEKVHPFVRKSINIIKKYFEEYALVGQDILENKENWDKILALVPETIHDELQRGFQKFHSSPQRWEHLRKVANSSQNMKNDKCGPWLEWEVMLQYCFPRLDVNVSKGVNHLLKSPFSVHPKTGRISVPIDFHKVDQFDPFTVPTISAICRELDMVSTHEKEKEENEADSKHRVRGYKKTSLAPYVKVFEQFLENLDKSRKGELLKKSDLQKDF
T1 sequence (P33610 whole entry partner): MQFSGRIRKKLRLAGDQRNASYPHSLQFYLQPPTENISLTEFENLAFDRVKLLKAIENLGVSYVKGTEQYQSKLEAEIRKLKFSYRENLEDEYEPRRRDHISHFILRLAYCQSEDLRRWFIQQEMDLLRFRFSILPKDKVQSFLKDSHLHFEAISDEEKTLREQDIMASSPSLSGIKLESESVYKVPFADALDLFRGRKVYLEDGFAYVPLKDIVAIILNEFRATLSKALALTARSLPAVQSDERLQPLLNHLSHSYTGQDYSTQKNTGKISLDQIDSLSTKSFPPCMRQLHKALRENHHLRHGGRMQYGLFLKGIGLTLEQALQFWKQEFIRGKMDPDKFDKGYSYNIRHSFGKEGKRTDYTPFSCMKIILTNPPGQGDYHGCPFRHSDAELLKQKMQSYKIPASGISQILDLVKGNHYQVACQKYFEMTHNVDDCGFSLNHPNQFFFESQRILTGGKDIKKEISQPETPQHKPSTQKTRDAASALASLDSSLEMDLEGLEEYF

Row | Compound | DNA polymerase α (DNA polymerase α; 25 μM) | DNA polymerase activity time course, in words (DNA polymerase α) | DNA polymerase α (DNA polymerase α; 100 μM) | rRNA polymerase (rRNA polymerase; 25 μM) | rRNA polymerase (rRNA polymerase; 50 μM) | rRNA polymerase (rRNA polymerase; 100 μM) | Aspartate transcarbamylase ([1]; 25 μM) | Aspartate transcarbamylase ([1]; 50 μM) | Aspartate transcarbamylase ([1]; 100 μM) | Carbamyl phosphate synthetase ([2]; 25 μM) | Carbamyl phosphate synthetase ([2]; 50 μM) | L1210 DNA fragmentation, in words (L1210 DNA) | Pyrimidine de novo synthesis ([4]; 25 μM) | Pyrimidine de novo synthesis ([4]; 100 μM) | Protein synthesis (L1210 protein synthesis; 50 μM) | Protein synthesis (L1210 protein synthesis; 100 μM) | Thymidine diphosphate kinase ([5]; 50 μM) | Thymidine diphosphate kinase ([5]; 100 μM) | DNA synthesis (L1210 DNA synthesis; 25 μM) | DNA synthesis (L1210 DNA synthesis; 50 μM) | other results
1 | COc1c2cc(S(=O)(=O)[O-])cc1Cc1cc(S(=O)(=O)[O-])cc(c1OC)Cc1cc(S(=O)(=O)[O-])cc(c1OC)Cc1cc(S(=O)(=O)[O-])cc(c1OC)Cc1cc(S(=O)(=O)[O-])cc(c1OC)Cc1cc(S(=O)(=O)[O-])cc(c1OC)Cc1cc(S(=O)(=O)[O-])cc(c1OC)Cc1cc(S(=O)(=O)[O-])cc(c1OC)C2.[Na+].[Na+].[Na+].[Na+].[Na+].[Na+].[Na+].[Na+] [GI-2021] | 76+5% of Control | activity remained suppressed at 60 and 90 min | 52+4% of Control | 122+7% of Control | 120+5% of Control | 123+4% of Control | 101+6% of Control | 100+5% of Control | 98+4% of Control | 94+5% of Control | 89+5% of Control | more evident | 98+6% of Control | 88+5% of Control | 64+4% of Control | 59+3% of Control | 32+3% of Control | 26+3% of Control | 105+6% of Control | 77+5% of Control | activity, in words [3]: effective; ED50 [3, 9]: 1.97 µg/mL; Protein synthesis (L1210 protein synthesis; 25 μM): 80+4% of Control; activity, in words [6]: active; ED50 [6, 9]: less than 2 μg/ml; DNA synthesis (L1210 DNA synthesis; 100 μM): 39+5% of Control
2 | O=S(=O)(O)c1cc2c(O)c(c1)Cc1cc(S(=O)(=O)O)cc(c1O)Cc1cc(S(=O)(=O)O)cc(c1O)Cc1cc(S(=O)(=O)O)cc(c1O)Cc1cc(S(=O)(=O)O)cc(c1O)Cc1cc(S(=O)(=O)O)cc(c1O)C2 [GI-2029] | 70+3% of Control | activity remained suppressed at 60 and 90 min | 44+3% of Control | 115+6% of Control | 102+4% of Control | 107+5% of Control | 100+5% of Control | 100+5% of Control | 98+6% of Control | 78+5% of Control | – | more moderated | 99+6% of Control | 93+7% of Control | 80+3% of Control | 71+3% of Control | – | 27+3% of Control | – | 78+3% of Control | DNA polymerase α (DNA polymerase α; 50 μM): 60+3% of Control; Carbamyl phosphate synthetase ([2]; 100 μM): 72+3% of Control; Pyrimidine de novo synthesis ([4]; 50 μM): 96+ 5% of Control; growth suppression, in words [7]: best activity; Thymidine diphosphate kinase ([5]; 25 μM): 57+3% of Control
3 | O=S(=O)(O)c1cc2c(O)c(c1)Cc1cc(S(=O)(=O)O)cc(c1O)Cc1cc(S(=O)(=O)O)cc(c1O)Cc1cc(S(=O)(=O)O)cc(c1O)Cc1cc(S(=O)(=O)O)cc(c1O)Cc1cc(S(=O)(=O)O)cc(c1O)Cc1cc(S(=O)(=O)O)cc(c1O)Cc1cc(S(=O)(=O)O)cc(c1O)C2 [GI-2041] | 85+5% of Control | returned to normal at 90 min | – | 112+5% of Control | – | – | 106+5% of Control | – | 94+5% of Control | 142+6% of Control | 82+5% of Control | – | 112+6% of Control | – | 70+3% of Control | 70+3% of Control | 64+5% of Control | 54+3% of Control | 98+6% of Control | 84+5% of Control | activity, in words [8]: active; ED50 [8, 9]: 2.60 µg/mL (≈ 1.75 µM); Pyrimidine de novo synthesis ([4]; 50 μM): 97+5% of Control; Thymidine diphosphate kinase ([5]; 25 μM): 89+5% of Control; DNA synthesis (L1210 DNA synthesis; 100 μM): 33+5% of Control

Source: article PMC2365111, “Cytotoxicity of Poly(Phenolic)Sulfonates and Their Sodium Salts in L1210 Lymphoid Leukemia Cells” (Metal-Based Drugs, 1998)
